Eight compounds from paper PMC6063448, “Antimicrobial activity of linear lipopeptides derived from BP100 towards plant pathogens” (PLoS ONE, 2018) can be followed below.

Common to all, as to format: cell-based
Test [1] deals with Erwinia amylovora PMV6076. As to the kind of experiment: MIC, growth inhibition in microtiter plates (TSB). The following applies: Ea, 25°C, 48 h, OD 600 nm, lowest concentration with no growth, given as interval of tested concentrations, three replicates, experiment repeated twice. An excerpt:
(§1) The following plant pathogenic bacterial strains were used: Erwinia amylovora PMV6076 (Institut National de la Recherche Agronomique, Angers, France), Pseudomonas syringae pv. syringae EPS94 (Institut de Tecnologia Agroalimentària, Universitat de Girona, Spain), Xanthomonas axonopodis pv. vesicatoria 2133–2, Pseudomonas syringae pv. actinidiae Psa3700.1.1, Xanthomonas fragariae Xf349-9A (Instituto Valenciano de Investigaciones Agrarias, Valencia, Spain), and Xanthomonas arboricola pv. pruni CFBP5563 (Collection Française de Bactéries associées aux Plantes, Angers, France). All bacteria except for X. fragariae were stored in Luria Bertani (LB) broth supplemented with glycerol (20%) and maintained at -80°C. For X. fragariae, Medium B [46] was used instead of LB. E. amylovora, X. arboricola pv. pruni, P. syringae pv. syringae and P. syringae pv. actinidiae were scrapped from the agar media after growing for 24 h at 25°C, and X. axonopodis pv. vesicatoria and X. fragariae after growing for 48 h at 25°C. The cell material was suspended in sterile water to obtain a suspension of 10^8 CFU mL^-1.
(§2) Lyophilized peptides were solubilized in sterile Milli-Q water to a final concentration of 1 mM and filter sterilized through a 0.22-μm pore filter. […] For antibacterial activity 20 μL of each dilution were mixed in a microtiter plate well with 20 μL of the corresponding suspension of the bacterial indicator, 160 μL of Trypticase Soy Broth (TSB) (BioMèrieux, France) to a total volume of 200 μL. For antifungal activity 20 μL of each stock solution were mixed in a microtiter plate well with 80 μL of the corresponding suspension of the fungal pathogen and 100 μL of double concentrated Potato Dextrose Broth (PDB) to a total volume of 200 μL containing 0.003% w/v of chloramphenicol to prevent bacterial contamination.
(§3) Three replicates for each combination of strain, compound and concentration were used. Microbial growth was determined by optical density measurement at 600 nm (Bioscreen C, Labsystem, Helsinki, Finland). For antibacterial activity microplates were incubated at 25°C with 20 s shaking before hourly absorbance measurement for 48 h. For antifungal activity microplates were incubated at 22°C with 1 min shaking before absorbance measurement that were done every two hours during seven days. The experiment was repeated twice. The MIC was taken as the lowest compound concentration with no growth at the end of the experiment.

The test system of test [2] is Pseudomonas syringae pv. actinidiae Psa3700.1.1. As to the kind of experiment: MIC, growth inhibition in microtiter plates (TSB). Conditions: Psa, 25°C, 48 h, OD 600 nm, lowest concentration with no growth, given as interval of tested concentrations, three replicates, experiment repeated twice.
Excerpt: as §1, §2, §3

The subject of test [3] is Pseudomonas syringae pv. syringae EPS94. As to the kind of experiment: MIC, growth inhibition in microtiter plates (TSB). The following applies: Pss, 25°C, 48 h, OD 600 nm, lowest concentration with no growth, given as interval of tested concentrations, three replicates, experiment repeated twice.
Excerpt: as §1, §2, §3

For test [4], the system named is Xanthomonas arboricola pv. pruni CFBP5563. The test can be described thus: MIC, growth inhibition in microtiter plates (TSB). The following applies: Xap, 25°C, 48 h, OD 600 nm, lowest concentration with no growth, given as interval of tested concentrations, three replicates, experiment repeated twice.
Excerpt: as §1, §2, §3

The subject of test [5] is Xanthomonas axonopodis pv. vesicatoria 2133–2. As to the kind of experiment: MIC, growth inhibition in microtiter plates (TSB). The following applies: Xav, 25°C, 48 h, OD 600 nm, lowest concentration with no growth, given as interval of tested concentrations, three replicates, experiment repeated twice.
Excerpt: as §1, §2, §3

Test [6] has as its system Xanthomonas fragariae Xf349-9A. As to the kind of experiment: MIC, growth inhibition in microtiter plates (TSB). Conditions: Xf, 25°C, 48 h, OD 600 nm, lowest concentration with no growth, given as interval of tested concentrations, three replicates, experiment repeated twice.
Excerpt: as §1, §2, §3

Test [7] concerns Fusarium oxysporum f. sp. lycopersici FOL 3 race 2. The test can be described thus: MIC, antifungal growth inhibition in microtiter plates (PDB). Conditions: Fo, 22°C, seven days, OD 600 nm, lowest concentration with no growth, given as interval of tested concentrations, three replicates, experiment repeated twice. The procedure: (§4) The following plant pathogenic fungal strains were used: Penicillium expansum EPS26 (Institut de Tecnologia Agroalimentària, Universitat de Girona, Spain) and Fusarium oxysporum f. sp. lycopersici FOL 3 race 2 (ATCC 201829, American Type Culture Collection,Virginia, EEUU). Strains were cultured on potato dextrose agar (PDA) plates (Difco). Conidia from P. expansum and microconidia from F. oxysporum were obtained from 5–7 day-old agar Potato Dextrose (PDA) cultures after growth at 25°C. Inoculum was prepared by scraping spore material from culture surfaces with a cotton swab and resuspending it in distilled water containing 0.5‰ of tween 80. The suspensions were filtered through Miracloth (Merk, Millipore) and the concentration of conidia was determined using a hemacytometer and adjusted to 10^4 conidia mL^-1 for F. oxysporum and to 10^3 conidia mL^-1 for P. expansum.
as §2, §3

Test [8] deals with Penicillium expansum EPS26. Described as above. Conditions: Pe, 22°C, seven days, OD 600 nm, lowest concentration with no growth, given as interval of tested concentrations, three replicates, experiment repeated twice. The procedure:
as §4, §2, §3

Structures are written as SMILES. A value given as a limit tells only on which side of the number the result lay.

In general, MIC refers to the lowest concentration that inhibits growth of the organism. Regarding `CCCC(=O)NCCCC[C@H](NC(=O)[C@H](CC(C)C)NC(=O)[C@@H](NC(=O)[C@H](CCCCN)NC(=O)[C@H](CCCCN)NC(=O)[C@H](Cc1ccccc1)NC(=O)[C@H](CC(C)C)NC(=O)[C@H](CCCCN)NC(=O)[C@H](CCCCN)NC(C)=O)[C@@H](C)CC)C(=O)N[C@@H](Cc1ccc(O)cc1)C(=O)N[C@@H](CC(C)C)C(N)=O` [BP388, Ac-KKLFKKILK(COC3H7)YL-NH2], the MIC in test [1] fell in the range of 3.1 to 6.2 µM; in test [2], 6.2 to 12.5 µM; in test [3], 6.2 to 12.5 µM; in test [4], 3.1 to 6.2 µM; in test [5] it was 1.6 to 3.1 µM; in test [6], 1.6 to 3.1 µM. The MIC in test [7] lay within 0.8 to 1.6 µM; in test [8], 6.2 to 12.5 µM.

For `CCCC(=O)NCCCC[C@H](NC(C)=O)C(=O)N[C@@H](CCCCN)C(=O)N[C@@H](CC(C)C)C(=O)N[C@@H](Cc1ccccc1)C(=O)N[C@@H](CCCCN)C(=O)N[C@@H](CCCCN)C(=O)N[C@H](C(=O)N[C@@H](CC(C)C)C(=O)N[C@@H](CCCCN)C(=O)N[C@@H](Cc1ccc(O)cc1)C(=O)N[C@@H](CC(C)C)C(N)=O)[C@@H](C)CC` [BP380, Ac-K(COC3H7)KLFKKILKYL-NH2], the MIC in test [1] lay in the range of 3.1 to 6.2 µM; in test [2], 6.2 to 12.5 µM; in test [3], 6.2 to 12.5 µM; in test [4], 3.1 to 6.2 µM; in test [5] it was 3.1 to 6.2 µM; in test [6], 3.1 to 6.2 µM. Further, the minimum inhibitory concentration (MIC) in test [7] lay in the range of 0.8 to 1.6 µM; in test [8] it was 3.1 to 6.2 µM.

Turning to `CCCCCC(=O)N[C@@H](CCCCN)C(=O)N[C@@H](CCCCN)C(=O)N[C@@H](CC(C)C)C(=O)N[C@@H](Cc1ccccc1)C(=O)N[C@@H](CCCCN)C(=O)N[C@@H](CCCCN)C(=O)N[C@H](C(=O)N[C@@H](CC(C)C)C(=O)N[C@@H](CCCCN)C(=O)N[C@@H](Cc1ccc(O)cc1)C(=O)N[C@@H](CC(C)C)C(N)=O)[C@@H](C)CC` [BP367, C5H11CO-KKLFKKILKYL-NH2], the minimal inhibitory concentration (MIC) in test [1], in test [2], in test [3], in test [4], in test [5] and in test [6] was 3.1 to 6.2 µM in each case. The minimal inhibitory concentration (MIC) in test [7] lay in the range of 1.6 to 3.1 µM; in test [8] it was 12.5 to 25 µM.

On to `CCCCCCCCCCCC(=O)NCCCC[C@H](NC(C)=O)C(=O)N[C@@H](CCCCN)C(=O)N[C@@H](CC(C)C)C(=O)N[C@@H](Cc1ccccc1)C(=O)N[C@@H](CCCCN)C(=O)N[C@@H](CCCCN)C(=O)N[C@H](C(=O)N[C@@H](CC(C)C)C(=O)N[C@@H](CCCCN)C(=O)N[C@@H](Cc1ccc(O)cc1)C(=O)N[C@@H](CC(C)C)C(N)=O)[C@@H](C)CC` [BP392, Ac-K(COC11H23)KLFKKILKYL-NH2], for which the MIC in test [1] is more than 25 µM; in test [2], more than 25 µM; in test [3] it was more than 25 µM; in test [4], 3.1 to 6.2 µM; in test [5], 3.1 to 6.2 µM; in test [6], 0.8 to 1.6 µM. Besides, the results for the minimal inhibitory concentration (MIC) in test [7] and in test [8] were 6.2 to 12.5 µM and more than 25 µM, respectively.

For the compound `CCCCCC(=O)NCCCC[C@H](NC(=O)[C@H](CCCCN)NC(C)=O)C(=O)N[C@@H](CC(C)C)C(=O)N[C@@H](Cc1ccccc1)C(=O)N[C@@H](CCCCN)C(=O)N[C@@H](CCCCN)C(=O)N[C@H](C(=O)N[C@@H](CC(C)C)C(=O)N[C@@H](CCCCN)C(=O)N[C@@H](Cc1ccc(O)cc1)C(=O)N[C@@H](CC(C)C)C(N)=O)[C@@H](C)CC` [BP369, Ac-KK(COC5H11)LFKKILKYL-NH2], the minimum inhibitory concentration (MIC) was in the range of 6.2 to 12.5 µM in test [1]; 3.1 to 6.2 µM in test [2]; 6.2 to 12.5 µM in test [3]; 0.8 to 1.6 µM in test [4]; 3.1 to 6.2 µM in test [5]; 3.1 to 6.2 µM in test [6]. The MIC lay within 0.4 to 0.8 µM in test [7] and 1.6 to 3.1 µM in test [8].

For the compound `CCCC(=O)NCCCC[C@H](NC(=O)[C@H](Cc1ccccc1)NC(=O)[C@H](CC(C)C)NC(=O)[C@H](CCCCN)NC(=O)[C@H](CCCCN)NC(C)=O)C(=O)N[C@@H](CCCCN)C(=O)N[C@H](C(=O)N[C@@H](CC(C)C)C(=O)N[C@@H](CCCCN)C(=O)N[C@@H](Cc1ccc(O)cc1)C(=O)N[C@@H](CC(C)C)C(N)=O)[C@@H](C)CC` [BP384, Ac-KKLFK(COC3H7)KILKYL-NH2], the minimum inhibitory concentration (MIC) lay within 3.1 to 6.2 µM in test [1]; 6.2 to 12.5 µM in test [2]; 6.2 to 12.5 µM in test [3]; 3.1 to 6.2 µM in test [4]; 1.6 to 3.1 µM in test [5]; 1.6 to 3.1 µM in test [6]. Also, the results for the MIC in test [7] and in test [8] were 1.6 to 3.1 µM and 12.5 to 25 µM, respectively.

With `CCCC(=O)NCCCC[C@H](NC(=O)[C@H](CC(C)C)NC(=O)[C@H](CCCCN)NC(=O)[C@H](CCCCN)NC(C)=O)C(=O)N[C@@H](CCCCN)C(=O)N[C@@H](CCCCN)C(=O)N[C@H](C(=O)N[C@@H](CC(C)C)C(=O)N[C@@H](CCCCN)C(=O)N[C@@H](Cc1ccc(O)cc1)C(=O)N[C@@H](CC(C)C)C(N)=O)[C@@H](C)CC` [BP383, Ac-KKLK(COC3H7)KKILKYL-NH2], the minimal inhibitory concentration (MIC) in test [1] was in the range of 6.2 to 12.5 µM; in test [2] it was 6.2 to 12.5 µM; in test [3], 6.2 to 12.5 µM; in test [4] it was 6.2 to 12.5 µM; in test [5], 3.1 to 6.2 µM; in test [6] it was 3.1 to 6.2 µM. In addition, the MIC in test [7] lay in the range of 0.8 to 1.6 µM; in test [8], 6.2 to 12.5 µM.

For the compound `CCCCCC(=O)NCCCC[C@H](NC(=O)[C@H](Cc1ccccc1)NC(=O)[C@H](CC(C)C)NC(=O)[C@H](CCCCN)NC(=O)[C@H](CCCCN)NC(C)=O)C(=O)N[C@@H](CCCCN)C(=O)N[C@H](C(=O)N[C@@H](CC(C)C)C(=O)N[C@@H](CCCCN)C(=O)N[C@@H](Cc1ccc(O)cc1)C(=O)N[C@@H](CC(C)C)C(N)=O)[C@@H](C)CC` [BP372, Ac-KKLFK(COC5H11)KILKYL-NH2], the minimal inhibitory concentration (MIC) in test [1] was 6.2 to 12.5 µM; in test [2], 6.2 to 12.5 µM; in test [3], 6.2 to 12.5 µM; in test [4], 3.1 to 6.2 µM; in test [5], 6.2 to 12.5 µM; in test [6], 3.1 to 6.2 µM. In addition, the results for the MIC in test [7] and in test [8] were 0.8 to 1.6 µM and 6.2 to 12.5 µM, respectively.
